Measurements reported in PubChem BioAssay AID179 (DTP/NCI, 2004).
The source made the active and inactive calls.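 The calls were made as follows: active = compounds giving half or more protection of infected cells from virus-caused growth loss, again on retest; inactive = the rest.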

System: CEM cells HIV-1 protection, formazan growth assay
Assay: NCI AIDS Antiviral Assay
Details: for IC50: measured here: growth of uninfected CEM cells
Outline: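 Protection of CEM cells against HIV-1 measured as cell growth via soluble formazan read-out, with five concentrations tested on both infected and uninfected cells; failure to protect may reflect toxicity.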

Structure (SMILES) | EC50 | IC50 | outcome
Cc1ccc(C(=O)O)c(CC2Cc3c(C)cccc3C2=O)c1 (configuration not stated) | > 200 µM | 155 µM | –
Cc1ccc(Cl)c(-c2nc3cc(Cl)c(Cl)cc3[nH]2)c1 | > 60.3 µM | > 60.3 µM | –
Cn1c(NNc2ccccc2)cc(=O)[nH]c1=O | > 200 µM | 28.8 µM | –
CC(=O)OCc1c2ccccc2c(C)c2c1cc(F)c1ccccc12 | – | – | inactive
CCSc1nc(C)nc2c1sc1nc3ccccc3n12 | > 100 µM | > 100 µM | –
CS(=O)(=O)Nc1nc2ccccc2c(=O)o1 | > 200 µM | > 200 µM | –
Cc1ccc(C(=O)/C=C/c2ccc(Cl)c(Cl)c2)cc1 | > 17.8 µM | > 17.8 µM | –
Cc1ccc2c(c1)C(=O)/C(=N/Nc1ccc(Cl)cc1)CCO2 | > 200 µM | 110 µM | –
COc1ccc2nc3c([N+](=O)[O-])ccc(NCCCN(C)C)c3c(NCCCN(C)C)c2c1 | > 200 µM | 0.229 µM | –
COc1ccc(S(=O)Cc2cc(OC)ccc2OC)cc1 (configuration not stated) | – | – | inactive
C=CCOCC(O)CNCC(O)COCC=C (configuration not stated) | > 200 µM | > 200 µM | –
CCOC(=O)C(/C=N/C(N)=S)=C(/O)c1ccccc1 | > 200 µM | > 200 µM | –
COc1ccc(/C=C/c2onc3c(=O)n(C)nc(-c4ccccc4)c23)cc1 | > 20 µM | > 20 µM | –
COc1ccc(CCCCl)c(C2=NCCc3ccccc32)c1 | > 200 µM | 7.08 µM | –
O=C1CCCC2=C1CC1=C(CCCC1=O)N2c1ccc(-c2ccccc2)cc1 | – | – | inactive
COc1cccc(Nc2nc(NS(=O)(=O)c3cc(C)c(Cl)cc3S)n[nH]2)c1 | > 200 µM | 158 µM | –
O=C(O)CCCNS(=O)(=O)c1ccc2ccccc2c1 | – | – | inactive
CCOC(=O)C(C(=O)OCC)=C(N)C(Cl)(Cl)Cl | > 200 µM | 42.7 µM | –
O=C(CCn1ccnc1)N1CCN(c2ccccc2)CC1 | > 871 µM | 646 µM | –
c1ccc2c(c1)c1c(n2CCOCCN2CCCC2)CCCC1 | > 200 µM | 9.55 µM | –
CCCN(CCCCC(NC(C)=O)C(=O)NCc1ccccc1)C(=O)N(C)N=O (configuration not stated) | > 89.1 µM | > 89.1 µM | –
NC(N)=N/N=C/c1c(-c2ccc(Cl)cc2)nc2n1CCS2 | > 200 µM | 11.2 µM | –
Nc1nc(Cl)c(CO)c(NCC2(CO)CC(CCc3ccccc3)C2)n1 (configuration not stated) | > 20 µM | 0.129 µM | –

Structure (SMILES) | EC50 | IC50 | outcome
CCP(CC)(c1ccccc1)=c1c(=O)c(Cl)c(Cl)c(=O)c1=O | > 200 µM | 27.5 µM | –
C[C@@]1(CO[N+](=O)[O-])OC(=O)N2CCC[C@H]21 | > 1150 µM | > 1150 µM | –
CC1(C)OC(=O)C(=Cc2ccc3c(c2)OCO3)C(=O)O1 | > 129 µM | 110 µM | –
O=C(OCc1ccccc1)C(Cc1ccc(OCc2ccccc2)cn1)NC(=O)C(F)(F)F (configuration not stated) | > 200 µM | 33.1 µM | –
CC(C)CCC[C@@H](C)C1CCC2[C@@H]3CCC4CC(CCC=C(c5cc(Cl)c(OC(=O)c6ccccc6)c(C(=O)O)c5)c5cc(Cl)c(OC(=O)c6ccccc6)c(C(=O)O)c5)CC[C@]4(C)C3CC[C@@]21C (some centres not stated) | > 200 µM | 141 µM | –
Cc1cn(COCCOP(=O)(OCOC(=O)C(C)(C)C)OCOC(=O)C(C)(C)C)c(=O)[nH]c1=O | > 200 µM | 110 µM | –
COc1ccc(CNc2nc3ccccc3nc2C(=O)O)cc1 | > 200 µM | 34.7 µM | –
O/N=C(/C(Cl)=C(Cl)Cl)C(Cl)Cl | > 200 µM | 33.1 µM | –
Cc1ccc(C)c2c1C(=O)N(c1ccccc1)C2=O | > 200 µM | > 200 µM | –
Clc1nc(Cl)nc(-c2cccn2-c2ccccc2)n1 | > 200 µM | 129 µM | –
COc1cc2c(cc1O)C(Cc1ccc(Oc3cc(CC4c5cc(O)c(OC)cc5CCN4C)ccc3O)cc1)N(C)CC2 (configuration not stated) | – | – | inactive
CCN(CC)CCN(CC)CC(=O)Nc1ccccc1Cl | > 200 µM | > 200 µM | –
NC(N)=NS(=O)(=O)c1ccc(NNc2c3ccccc3nc3c(C(=O)Nc4ccc(S(=O)(=O)N=C(N)N)cc4)cccc23)cc1 | > 200 µM | 33.1 µM | –
CC1(C)OC(=O)C(=Cc2cccc(Cl)c2)C(=O)O1 | > 490 µM | > 200 µM | –
CCOC(=O)c1nc(SC)sc1NC(=O)c1ccc([N+](=O)[O-])cc1 | > 200 µM | > 200 µM | –
S=C(NNc1nc2ccccc2n2cccc12)Nc1ccc(Br)cn1 | > 0.2 µM | 0.0617 µM | –
CC(C)(C)OC(=O)NC1CCCC1=O (configuration not stated) | – | – | inactive
COc1cc(OC)c(/C=N/N=C(\N)NO)c(OC)c1 | > 200 µM | > 200 µM | –
CC(O)CS(=O)(=O)O (configuration not stated) | > 200 µM | > 200 µM | –
BrCc1ccc2ccc3ccc(CBr)nc3c2n1 | > 200 µM | 3.72 µM | –
Cc1ccc(S(=O)(=O)OCC/C(=C\[Si](C)(C)C)c2ccccc2)cc1 | – | – | inactive
O=C(CSc1c2ccccc2nc2ccccc12)Nc1ccccc1-c1ccccc1NC(=O)CSc1c2ccccc2nc2ccccc12 | > 1.91 µM | > 1.91 µM | –
O=Cc1cn(C(=O)c2ccccc2)c2ccccc12 | – | – | inactive

Structure (SMILES) | EC50 | IC50 | outcome
CN(C)Cc1cc(N=Nc2ccc(Cl)cc2)cc(CN(C)C)c1O | > 20 µM | 8.71 µM | –
CCN(CC)c1ccc(N=C2C=CC(=C(C#N)C#N)c3ccccc32)c(C)c1 | – | – | inactive
O=C(O)c1c(-c2ccccc2)nn2c1ccc1ccccc12 | > 200 µM | > 100 µM | –
O=C1CCCC(=O)N1CCc1c[nH]c2ccccc12 | – | – | inactive
O=C1CN(c2ccccc2)CC(=O)N2Cc3ccccc3CN12 | > 44.7 µM | > 44.7 µM | –
CC1(C)CC(=O)C2=C(C1)Nc1ccc(Cl)cc1NC2c1ccccc1 (configuration not stated) | > 200 µM | 75.9 µM | –
COC(=O)[C@@H]1C2OC(C)(C)OC2CN1C(=O)OCc1ccccc1 (some centres not stated) | – | – | inactive
Cc1ccc(-n2cnc(C(=N)C#N)c2N)cc1 | > 200 µM | 123 µM | –
O=c1oc2ccccc2c(O)c1C(c1ccc(O)cc1)c1c(O)c2ccccc2oc1=O | – | – | inactive
C/C(=N\Nc1ncnc2ccccc12)c1ccccn1 | > 0.2 µM | 0.0257 µM | –
COC(=O)CCN1c2ccccc2Sc2ccccc21 | > 66.1 µM | > 66.1 µM | –
O=C1COCC(=O)N1 | > 2190 µM | > 2190 µM | –
COc1ccc(-c2sc(/N=C/c3cc(OC)c(OC)c(OC)c3)c(C#N)c2C)cc1OC | > 200 µM | 11.2 µM | –
COc1ccc(-c2onc3ccc(Cl)cc23)cc1 | > 20 µM | > 20 µM | –
Cc1ccc(S(=O)(=O)ON/N=C2/C3OC3[C@@H]3CCCC[C@H]23)cc1 (some centres not stated) | > 389 µM | 195 µM | –
CC(C)(C)c1ccc(Oc2ccc(C#N)c(C#N)c2)c(C(C)(C)C)c1 | > 77.6 µM | > 77.6 µM | –
COC(=O)c1cc(C(=O)OC)c2c3[nH]cnc3ncn2c1=O | > 200 µM | > 200 µM | –
COc1ccc(-c2nc(-c3cnccn3)n(C/C=C/c3ccccc3)n2)cc1 | 64.6 µM | > 200 µM | –
O=C(/C=C/c1ccccc1)CC(=O)c1ccccc1.O=C(/C=C/c1ccccc1)CC(=O)c1ccccc1.[Cu] | > 200 µM | 95.5 µM | –
C[C@H]1[C@H]2CC[C@H]3[C@@H]4CC(=O)[C@]56C[C@@H]5CC[C@]6(C)[C@H]4CC[C@]23CN1C | > 91.2 µM | > 91.2 µM | –
CCOC(=O)C(=O)Nc1nc2ccc(C)cc2s1 | – | – | inactive
CN(C)c1ccc(/C=C(\C#N)c2c(Cl)cccc2Cl)cc1 | > 200 µM | 4.57 µM | –
C/C=N\n1c(C)n[nH]c1=O | > 200 µM | > 200 µM | –

Structure (SMILES) | EC50 | IC50 | outcome
O=c1oc2ccccc2c(O)c1C1c2ccccc2Oc2c1c(=O)oc1ccccc21 (configuration not stated) | – | – | inactive
CC1OC(OC2C(O)COC(OC3C(C)OC(OC4C(OC(=O)[C@]56CCC(C)(C)C[C@@H]5C5=CCC7[C@@]8(C)C[C@H](O)[C@H](OC9OC(CO)C(O)C(OC%10OC(CO)C(O)C(O)C%10O)C9O)[C@@](C)(CO)[C@@H]8CC[C@@]7(C)[C@]5(C)CC6)OCC(O)C4O)C(O)C3OC3OCC(O)C(O)C3O)C2O)C(O)C(O)C1O (some centres not stated) | > 17 µM | > 17 µM | –
CC(C#N)NCc1ccc(C(C)NC(C)C#N)cc1 (configuration not stated) | > 200 µM | > 200 µM | –
CCCCCCCCCCN=Cc1c(O)c(O)c(CCC)c2cc(C)c(-c3c(C)cc4c(CCC)c(O)c(O)c(C=NCCCCCCCCCC)c4c3O)c(O)c12 | – | – | inactive
CC1CCC(C(C)C)C(OC(=O)NCn2cc(-c3ccccc3)nn2)C1 (configuration not stated) | > 200 µM | > 200 µM | –
COc1ccc(-c2onc(-c3c(C)cc(C)cc3C)c2C2=NCCCN2)cc1 | > 50.1 µM | > 50.1 µM | –
C#C[C@]1(O)CCC2C3CCc4cc(Oc5nc(F)nc(-n6c(C)nc7cc8ccccc8cc76)n5)ccc4C3CCC21C (some centres not stated) | > 200 µM | 28.2 µM | –
N#Cc1c(-c2ccc(Cl)cc2)c(C#N)c(=O)n(NS(=O)(=O)c2ccccc2)c1S | > 200 µM | 17 µM | –
CCC12CCCN(Cc3ccccc3)C1c1c(n(C)c3ccccc13)C(C(=O)O)C2 (configuration not stated) | > 7.76 µM | > 7.76 µM | –
C=CCNC(=S)N/C=C(/C(=O)c1ccccc1)c1ccccc1 | > 200 µM | 182 µM | –
CC(C)(CO)NCC(O)CS(=O)(=O)O (configuration not stated) | > 200 µM | > 200 µM | –
O=c1cc(NNc2ccccc2)[nH]c(=S)[nH]1 | > 200 µM | 12.3 µM | –
O=C(CCC(=O)Nc1ccc(Cl)cc1)CC(=O)c1ccc(F)cc1 | – | – | inactive
CNC(=O)NCNC(=O)NC | > 562 µM | > 562 µM | –
O=c1[nH]c(=O)n(C2CC(O)C(CO)O2)cc1NN=NCCc1ccccc1 (configuration not stated) | > 200 µM | > 200 µM | –
CNC(=O)c1ccc(NC(=O)Nc2cccc(C3=NCCN3)c2)cc1NC(=O)Nc1cccc(C2=NCCN2)c1 | 28.2 µM | 178 µM | –
CN1CCC2(CC1)C(=O)N(Cc1ccccc1)C(=O)C2c1ccccc1 (configuration not stated) | > 372 µM | 214 µM | –
COc1ccccc1C1C(C(=O)Nc2ccccc2)=C(C)NC(C)=C1C(=O)Nc1ccccc1 | > 21.9 µM | > 21.9 µM | –
COc1nc(NC2OCC(O)C(O)C2O)c(NC2OCC(O)C(O)C2O)c(=O)n1C (configuration not stated) | > 575 µM | > 575 µM | –
CSc1c(C(=O)Nc2ccc(Cl)cc2)c(N)n(N)c(=O)c1C#N | > 200 µM | 40.7 µM | –
